ChEMBL document CHEMBL1667845, “LC-MS and NMR characterization of the purple chromophore formed in the o-aminobenzaldehyde assay of dihydrodipicolinate synthase” (Bioorg Med Chem, 2011)
The source made the active and inactive calls.

How the values were obtained:
[1] = system: Escherichia coli; test: Binding affinity to Escherichia coli DHDPS assessed as formation of purple chromophore after 10 to 40 mins by o-aminobenzaldehyde assay
[2] = system: Escherichia coli; test: Binding affinity to Escherichia coli DHDPS assessed as formation of purple chromophore after 70 mins by o-aminobenzaldehyde assay using UV-vis spectrophotometric analysis using UV-vis spectrophotometric analysis
[3] = system: Escherichia coli; test: Binding affinity to Escherichia coli DHDPS assessed as formation of purple chromophore after 30 to 60 mins by o-aminobenzaldehyde assay using UV-vis spectrophotometric analysis using LC-MS analysis

Measured: Activity

O=C(O)C1=N[C@H](C(=O)O)C[C@H](O)C1
active: [1] | [2] | [3]
